According to US10231958B2, “Methods and compositions for enhancing chemotherapy” (THE BOARD OF REGENTS OF THE UNIVERSITY OF TEXAS SYSTEM, priority 2015, dated 2019):
Starred links: 1 amine or outer side, 2 acyl side, 3 side chain; linkers in the order of their positions; H or OH if unused. Positions of bridges follow the written chain, without caps; N, C: chain ends. Non-standard residues stand in square brackets, D forms with d. Residues, ends and D or L forms follow the SMILES beside them. Chains are numbered I, II in the order given. Actinocin(9to1) = Cc1c2oc3c(C)ccc(C(=O)[*:1])c3nc-2c(C(=O)[*:2])c(N)c1=O; NMeV = CN[C@H](C(=O)O)C(C)C; Sar = CNCC(=O)O

Columns and labels:
[1] = system: Intracellular ROS production; assay: Real-time ROS production (DCF assay); assay type: cell-based; details: for ROS production, agent alone: BSO 2.5 mM, CDDP 75 μM, TMZ 1.5 mM, 4HC 75 μM, 12 h
Procedure: Intracellular ROS production was detected using DCFH-DA probe (Sigma) (Zanotto-Filho et al., 2010, Cancer Lett 288, 192-203). This reagent enters the cells and reacts predominantly with highly oxidizing species of ROS, such as hydroxyl radicals, hydroperoxides, and peroxynitrite, thus producing the fluorophore DCF. Briefly, cells were seeded in black-edge clear bottom 96-well plates. After reaching 70% confluence, medium was changed and cells were incubated with 20 μM DCFH-DA dissolved in medium containing 0.5% FBS. After 1 h pre-incubation to allow DCFH-DA uptake, treatments were added to its respective final concentrations and DCF fluorescence was monitored at 0.5, 1, 3, 8, 12, 16 and 24 h in a fluorescence reader (Ex/Em=485/532 nm). Hydrogen peroxide was used as a positive control and N-acetylcysteine (NAC), GSH-ethyl-ester (GSH-E) and Trolox were used as antioxidant standards. As a control, at the end of 24 h, cell viability was assessed and compared to wells in the absence of DCFH-DA.

IL8, MMP1, MMP3 and PGE2 = assay: ELISA of inflammatory mediators in culture medium; assay type: cell-based, human; details: for production of IL-8, MMP-1 and MMP-3: MDA-MB231 culture medium; for prostaglandin E2 (PGE2) in culture medium and COX-2 protein in lysates: human cancer cells, 12 h
Procedure: (§1) Quantification of MMP1 and MMP3 content in culture medium was assessed using RayBio-MMP3 and RayBio-MMP1 Elisa Kit (RayBiotech, Inc); IL8 was analyzed by Human IL-8 Elisa kit (Pierce Biotechnology). The levels of prostaglandin E2 (PGE2) were determined using the Prostaglandin E2 EIA Kit Monoclonal (Cayman Chemical Company). Culture media were diluted to fit within the standard curves. For conditioned media (CM) preparation for invasion and in vitro angiogenesis experiments, 12-well plated cells were treated with MMS (or MMS plus inhibitors) for 8 h in the presence of 10% FBS, twice washed with HBSS, and incubated with 700 μL drug/serum-free fresh medium for additional 12 h. Thereafter, the conditioned fresh medium was collected and directly used for migration and invasion experiments in order to reduce freezing associated loss of activity.

[2] = system: NRF2, GCLC, ER stress markers; assay: Western blot of NRF2, GCLC and ER stress markers; assay type: cell-based; details: for NRF2 and GCLC protein levels: MEFs, MDA-MB231, MCF-7, 8-12 h; for immunocontent of ER stress markers: cancer cells, 24 h; for effect on MMS-induced NRF2 activation: CHX 1 μg/mL, Actinomycin D 5 μg/mL, NAC 7.5 mM
Procedure: Western blot. Protein lysates were prepared using RIPA buffer containing 5% sodium deoxycholate, 0.1% SDS, 0.1% Igepal in PBS with a cocktail of protease and phosphatase inhibitors (1 mM PMSF, 1 mM sodium orthovanadate, 1 mM NaF, and 30 μL/mL aprotinin (Sigma-Aldrich, USA)) and clarified by centrifugation. Protein concentration was determined using Bradford Protein Assay Reagent (Biorad, Hercules, Calif.). Equal amounts of protein were resolved using 8-12% SDS polyacrylamide gel, transferred onto nitrocellulose membranes (Hybond-ECL, GE Healthcare Lifesciences, Piscataway, N.J.) and detected using Lumiglo system (Cell Signaling Technology, Calif.) and x-ray films. Primary antibodies included COX-2 (#4842), NRF2 (D1C9), p-JNK1/2 (Thr183/Tyr185, #4671), p-p38 (Thr180/Tyr182, #9216), p-ERK1/2 (Thr202/Tyr204, #9101), BiP/GRP78 (C50B12), IRE1a (14C10), CHOP (L63F7) and PERK (D11A8) from Cell Signaling Technology; p-IRE1a (Ser724; NB100-2323) from Novus Biologicals; GCLC (Ab41463), beta-actin (ab8227) and ATF6 (Ab37149) from Abcam; p-PERK (Thr 981, sc-32577) and ATF3 (C19) were purchased from Santa Cruz. All primary antibodies were used at 1:1000 dilutions and secondary antibodies were 1:3000 in TBS-T with 5% BSA.

[3] = system: NFκB-responsive firefly luciferase construct in MDA-MB231 cells; assay: NFκB gene reporter assay; assay type: cell-based, human; details: MDA-MB231, pre-incubation with inhibitor
Procedure: (§2) Prior to transfection, cells were plated in 96-well plates to 80-90% confluence (100 μL antibiotic free-medium) after 24 h. When used, siRNA were incubated by reverse transfection during cells seeding. […] A mixture of non-inducible firefly luciferase construct and constitutively expressing Renilla luciferase construct (40:1) were used as negative controls. Approximately 24 h post-transfection, the medium was changed and the cells were treated for 12 h with alkylating agents (with/out 6 h pre-treatments). At the end of this period, medium was changed to drug-free fresh medium (to minimize the effect of alkylating toxicity on promoters activity) and cells were kept for an additional 12 h.

human endothelial cells = assay: In vitro angiogenesis (Angiophase kit, CD31); assay type: cell-based; details: direct incubation
Procedure: as §1
The Angiophase kit (MBL Inc.) was used to assess the angiogenic potential of conditioned media (CM) from breast cancer cells or the direct effect of pharmaceutical inhibitors (free-drug system) on vessel-like structures formation in vitro. With this kit, human endothelial cells are co-cultured in a specially designed medium to form threadlike tubule structures. These gradually join up to form a network of anastomosing tubules, which resemble the capillary bed found in the CAM assay. Kit-provided cryopreserved co-culture of human endothelial cells were plated and kept for 96 h (proliferative phase) without treatments. Afterwards, the cells were maintained in the presence of conditioned medium from alkylating agent treated cells or control medium for a total of 14 days (angiogenic/vasculogenic phase). Medium was changed each 2 days. At the end of treatments, the cells were fixed and immune-stained for CD31 (PECAM-1), following by incubation with secondary antibody conjugate. ELISA was developed using the soluble substrate p-nitrophenyl-phosphate (p-NPP) whose product was colorimetrically read at 405 nm. After ELISA assays, the wells were washed with dH2O and tubule staining was performed by incubating CD31-stained tubules with the substrate BCIP/NBT, which form insoluble precipitates. Tubules were counted and photographed for qualitative monitoring.

[4] = system: AP1-responsive firefly luciferase construct in MDA-MB231 cells; assay: AP-1 gene reporter assay; assay type: cell-based, human; details: MDA-MB231, pre-incubation with inhibitor
Procedure: as §2

[5] = system: Kc167 cells, MEFs, and MDA-MB231 breast cancer cells; assay: Cell viability (CellTiter-Glo); assay type: cell-based, D. melanogaster, mouse, human; details: pre-incubation, then MMS; all cell types tested; 48 h
Procedure: The D. melanogaster embryonic cell line Kc167 was grown in Schneider medium (Invitrogen, Carlsbad, Calif.) supplemented with 10% heat-inactivated (56° C./30 min) fetal bovine serum (FBS), penicillin and streptomycin at 22° C. in a humidified incubator. Primary MEFs were obtained by harvesting 14.5-day C57BL/6J embryos as previously described (Ravi et al., 2009, PLoS Genet 5, e1000527). Briefly, fetal liver and head were removed and the remainder of the embryo was mechanically disaggregated in plating medium. A suspension of single-cells was plated in DMEM (plus 10% FBS, 100 U/mL penicillin and 100 μg/mL streptomycin). MEFs were grown for two passages before freezing aliquots. Aliquots were taken and expanded as needed for each experiment. MDA-MB231, SkBr3 and MCF-7 breast cancer cells lines were obtained from ATCC and grown in DMEM supplemented with 10% inactivated FBS plus antibiotics in a 37° C. humidified incubator at […] atmosphere. Cells were kept and treated in the exponential phase of growing (60-70% confluence). […] DMSO concentrations were kept to a maximum of 0.1% for all experiments. Cell viability was assessed using CellTiter-Glo Luminescent Viability assay (Promega) in 384 or 96-well plates white-border clear-bottom plated cells. For caspase-3/7 activity, Caspase-Glo 3/7 Assay kits were used (Promega). For caspase assays, the cells were seeded in 96-well plates and assayed directly after treatments. Caspase-3/7 inhibitor (Z-DEVD-fmk) was used to ensure assay specificity. LDH release into culture medium was quantified by Cytotox-96 Non-Radioactive assay kit in agreement with instructions (Promega).

[6] = system: MDA-MB231 xenograft implants; assay: MDA-MB231 xenograft study; assay type: in vivo, mouse
Excerpt: The study was approved by the University of Texas Health Science Center at San Antonio Institutional Animal Care and Use Committee (IACUC) policy as outlined in protocol number 11024. The facility is operated in compliance with the Public Law 89-544 (Animal Welfare Act) and its amendments, Public Health Services Policy on Humane Care and Use of Laboratory Animals (PHS Policy) using the Guide for the Care and Use of Laboratory Animals (Guide) as the basis of operation. Selection of cyclophosphamide and sorafenib doses was based on previously published reports (Sun et al., 2010, J Int Med Res 38, 967-76; Wilhelm et al., 2004 Cancer Res 64, 7099-109). MDA-MB-231 cells were harvested by trypsinization, washed and re-suspended in serum-free medium. Thereafter, cells were mixed with matrigel (1:1), and approximately 5×10^6 cells were subcutaneously injected in the right flank of each mouse. When the average tumor volume reached about 100 mm^3, mice were randomized into groups of 8 animals each, and the following treatment protocol was implemented: Group 1 (control): 100 μL of saline (i.p.); Group 2: sorafenib (1 mg/kg; i.p.) for 9 days; Group 3: cyclophosphamide 0.1 g/kg on days 2, 4, 6 and 8; Group 4: Sorafenib+cyclophosphamide (combination of same above described regimens). All animals were sacrificed 5 days after the end of treatments (15th day of the treatment protocol). Body weight of mice was recorded weekly, and tumor size was measured thrice a week in two dimensions using a digital caliper. The tumor volume was calculated by the formula 0.5236 L1(L2)^2, where L1 is the long axis, and L2 is the short axis of the tumor. At the termination of the study, mice were euthanized; tumors were excised and a part was fixed in 10% phosphate-buffered formalin for H&E, Masson's staining and immunohistochemistry (IHC) analyses.

O=P1(N(CCCl)CCCl)NC(OO)CCO1 (centres unmarked) [4-HC, 4-hydroperoxycyclophosphamide]
ROS production, agent alone [1]: increased ROS | production of IL-8, MMP-1 and MMP-3 (IL8, MMP1, MMP3 and PGE2): increased the production of these molecules | prostaglandin E2 (PGE2) in culture medium and COX-2 protein in lysates (IL8, MMP1, MMP3 and PGE2): increased levels of prostaglandin E2 (PGE2) | NRF2 and GCLC protein levels [2]: induced NRF2 and GCLC protein | immunocontent of ER stress markers [2]: increased the immunocontent of ER stress markers

Cc1ccc(S(=O)(=O)/C=C/C#N)cc1 [BAY117082]
effect on MMS-induced activation of NFκB reporter [3]: blocked

[NH2][Pt]([NH2])([Cl])[Cl] [CDDP, cisplatin]
ROS production, agent alone [1]: increased ROS | production of IL-8, MMP-1 and MMP-3 (IL8, MMP1, MMP3 and PGE2): increased the production of these molecules | prostaglandin E2 (PGE2) in culture medium and COX-2 protein in lysates (IL8, MMP1, MMP3 and PGE2): increased levels of prostaglandin E2 (PGE2) | NRF2 and GCLC protein levels [2]: induced NRF2 and GCLC protein | immunocontent of ER stress markers [2]: increased the immunocontent of ER stress markers

CCCCC[C@H](O)/C=C/[C@H]1[C@H](O)CC(=O)[C@@H]1C/C=C\CCCC(=O)O [PGE2, prostaglandin E2]
vessel-like structure formation, purified factor (human endothelial cells): angiogenic

C[S+]([O-])c1ccc(-c2nc(-c3ccc(F)cc3)c(-c3ccncc3)[nH]2)cc1 (centres unmarked) [SB203508]
effect on MMS-induced activation of NFκB reporter [3]: only blocked the NFκB reporter | effect on MMS-induced activation of AP-1 reporter [4]: only blocked the NFκB reporter

O=C1c2ccccc2-c2n[nH]c3cccc1c23 [SP600129]
effect on MMS-induced activation of AP-1 reporter [4]: blocked

Cc1c(C)c2c(c(C)c1O)CCC(C)(C(=O)O)O2 (centres unmarked) [Trolox]
effect on ROS levels ([1]; Trolox 200 μM, NAC 7.5 mM, GSH-E 10 mM): reduced ROS below levels of the control | effect on MMS toxicity [5]: had no effect

Cc1c2oc3c(C)ccc(C(=O)N[C@@H]4C(=O)N[C@H](C(C)C)C(=O)N5CCC[C@H]5C(=O)N(C)CC(=O)N(C)[C@@H](C(C)C)C(=O)O[C@@H]4C)c3nc-2c(C(=O)N[C@@H]2C(=O)N[C@H](C(C)C)C(=O)N3CCC[C@H]3C(=O)N(C)CC(=O)N(C)[C@@H](C(C)C)C(=O)O[C@@H]2C)c(N)c1=O [actinomycin D] (I: T[dV]P[Sar][NMeV] / II: T[dV]P[Sar][NMeV]; ester I:1-I:C, II:1-II:C; linker I:N-II:N via Actinocin(9to1))
effect on MMS-induced NRF2 activation [2]: blocked NRF2 activation

C[C@@H]1C[C@@H]([C@H](O)CC2CC(=O)NC(=O)C2)C(=O)[C@@H](C)C1 [cycloheximide]
effect on MMS-induced NRF2 activation [2]: blocked NRF2 activation

O=P1(N(CCCl)CCCl)NCCCO1 (centres unmarked) [cyclophosphamide]
collagen deposition (wound healing phenotype) ([6]; cyclophosphamide alone): spreading areas of collagen deposition | tumor microvessels (histology, CD31) ([6]; cyclophosphamide alone vs untreated): increased number of niches of microvessels | tumor growth, single agent ([6]; sorafenib 1 mg/kg i.p. 9 days, cyclophosphamide 0.1 g/kg days 2, 4, 6, 8): reduced tumor size

VEGF
vessel-like structure formation, purified factor (human endothelial cells): angiogenic
